Laboratory results from patent US20020028469A1, “Method of defining genus of chemical compound and method of designing molecules” (priority 1997, published 2002).

Key:
[1] = tested on: PDEIV; test: PDEIV inhibition (IC50); type: biochemical; settings: PDEIV inhibitory activity
[2] = Solubility in aqueous solution, noted during coupling; type: physicochemical; settings: methanol used as solvent instead
Procedure: 1: 6 mg Compound C was dissolved in 2 ml methanol in 50 ml centrifuge tube (methanol was used because Compound C is insoluble in aqueous solution).

IC50 [1]	solubility in aqueous solution [2]	Structure (SMILES)
800 nM	insoluble	COc1ccc(Cn2cncc3nc(C(C)C)nc2-3)cc1OC1CCCC1 [Compound C, 3-(3-cyclopentyloxy-4-methoxybenzyl)-8-isopropyl-3H-purine]
410 nM		CCNc1ncn(Cc2ccc(OC)c(OC3CCCC3)c2)c2nc(C(C)C)nc1-2 [Compound A, 3-(3-cyclopentyloxy-4-methoxybenzyl)-6-ethylamino-8-isopropyl-purine]
3000 nM		COc1ccc(C2CNC(=O)C2)cc1OC1CCCC1 (stereo not shown) [rolipram, reference compound]
